Laboratory results as given in US20160130226A1, “SPIRO-SUBSTITUTED OXINDOLE DERIVATIVES HAVING AMPK ACTIVITY” (BOEHRINGER INGELHEIM INTERNATIONAL GMBH, priority 2013, published 2016).

Legend:
[1] = target: T1, AMPK beta 1 (Homo sapiens, UniProt Q13131+Q9Y478); assay: in-cell-ELISA for phospho-ACC: activation of AMPK, beta 1 (HepG2 cells / C2C12 myotubes); type: cell-based; settings: 2 h, percentage activation over vehicle control; for activation at 3 µM / activation at 1 µM / activation at 10 µM: read-out: Percentage activation of beta 1 at given concentration
T1 construct: in-cell-ELISA for phospho-ACC (Acetyl-CoA carboxylase 1) in HepG2 cells (liver); endogenous in cells; host or cells: HepG2 (assignment to the beta 1 column inferred)
Procedure: (§1) Activation of AMPK by various compounds were measured using in-cell-ELISA for phospho-ACC (Acetyl-CoA carboxylase 1) in HepG2 cells (liver) and fully differentiated myotubes (C2C12 cells) grown in 96 well plate. Cells were treated with 1 μM, 3 μM or 10 μM of the molecule (Example) for 2 h in serum free DMEM media. After methanol fixation, cells were blocked with BSA followed by addition of anti-phospho ACC antibody (Cell Signaling) and HRP conjugated secondary antibody. Absorbance values taken at 450 nm were normalized with total DNA (Hoechest stain). Results were expressed as percentage activation over vehicle control.
(§2) Percentage activation at compound (Example) concentration of 1, 3 or 10 μM for compounds according to the invention are shown in the following table. The number of the compound corresponds to the number of the Example (Ex) in the experimental section.

[2] = target: T2, AMPK beta 2 (Mus musculus, UniProt Q6PAM0+Q8BRK8); assay: in-cell-ELISA for phospho-ACC: activation of AMPK, beta 2 (HepG2 cells / C2C12 myotubes); type: cell-based; settings: 2 h, percentage activation over vehicle control; for activation at 1 µM / activation at 3 µM / activation at 10 µM: read-out: Percentage activation of beta 2 at given concentration
T2 construct: fully differentiated myotubes (C2C12 cells) grown in 96 well plate; endogenous in cells; host or cells: C2C12 myotubes (assignment to the beta 2 column inferred)
Procedure: as §1, §2

T2 sequence (Q6PAM0 whole entry): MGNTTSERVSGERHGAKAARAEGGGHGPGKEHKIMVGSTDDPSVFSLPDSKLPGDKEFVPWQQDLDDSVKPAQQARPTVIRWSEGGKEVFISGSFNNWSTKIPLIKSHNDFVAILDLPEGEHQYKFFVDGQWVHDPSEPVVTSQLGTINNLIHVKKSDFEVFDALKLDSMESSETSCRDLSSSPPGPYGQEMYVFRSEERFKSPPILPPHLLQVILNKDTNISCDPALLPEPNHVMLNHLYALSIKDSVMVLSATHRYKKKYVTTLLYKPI
T2 sequence (Q8BRK8 whole entry): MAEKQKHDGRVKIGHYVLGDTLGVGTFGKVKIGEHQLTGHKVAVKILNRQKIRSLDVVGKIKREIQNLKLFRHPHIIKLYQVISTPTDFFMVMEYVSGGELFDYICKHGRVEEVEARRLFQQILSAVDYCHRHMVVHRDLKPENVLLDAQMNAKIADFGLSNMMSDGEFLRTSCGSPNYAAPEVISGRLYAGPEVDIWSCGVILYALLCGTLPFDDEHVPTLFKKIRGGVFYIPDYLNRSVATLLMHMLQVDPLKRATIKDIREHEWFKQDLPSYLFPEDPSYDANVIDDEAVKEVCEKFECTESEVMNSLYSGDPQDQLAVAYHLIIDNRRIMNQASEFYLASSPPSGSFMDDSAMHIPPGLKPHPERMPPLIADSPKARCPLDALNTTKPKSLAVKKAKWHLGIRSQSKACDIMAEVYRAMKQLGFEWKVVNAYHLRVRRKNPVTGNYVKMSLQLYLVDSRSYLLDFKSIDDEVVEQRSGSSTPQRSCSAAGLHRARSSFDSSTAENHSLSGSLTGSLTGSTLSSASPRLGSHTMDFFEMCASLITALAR
T2 sequence (O54950 whole entry partner): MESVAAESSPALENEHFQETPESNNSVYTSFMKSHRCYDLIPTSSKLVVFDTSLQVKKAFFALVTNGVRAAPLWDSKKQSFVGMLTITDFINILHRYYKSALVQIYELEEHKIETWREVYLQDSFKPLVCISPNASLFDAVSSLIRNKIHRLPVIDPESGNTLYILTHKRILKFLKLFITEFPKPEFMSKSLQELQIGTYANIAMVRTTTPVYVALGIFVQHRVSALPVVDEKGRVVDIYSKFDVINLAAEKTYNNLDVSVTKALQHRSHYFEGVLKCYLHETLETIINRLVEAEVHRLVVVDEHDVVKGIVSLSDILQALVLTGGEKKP
T1 sequence (Q9Y478 2-270 limits assumed): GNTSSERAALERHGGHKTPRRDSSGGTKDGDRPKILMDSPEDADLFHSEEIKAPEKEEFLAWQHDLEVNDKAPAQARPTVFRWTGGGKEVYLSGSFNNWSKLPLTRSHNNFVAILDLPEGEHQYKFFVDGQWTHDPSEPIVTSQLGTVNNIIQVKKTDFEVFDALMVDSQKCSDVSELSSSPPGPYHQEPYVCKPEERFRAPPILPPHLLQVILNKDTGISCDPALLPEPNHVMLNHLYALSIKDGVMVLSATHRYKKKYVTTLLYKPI
T1 sequence (Q13131 whole entry): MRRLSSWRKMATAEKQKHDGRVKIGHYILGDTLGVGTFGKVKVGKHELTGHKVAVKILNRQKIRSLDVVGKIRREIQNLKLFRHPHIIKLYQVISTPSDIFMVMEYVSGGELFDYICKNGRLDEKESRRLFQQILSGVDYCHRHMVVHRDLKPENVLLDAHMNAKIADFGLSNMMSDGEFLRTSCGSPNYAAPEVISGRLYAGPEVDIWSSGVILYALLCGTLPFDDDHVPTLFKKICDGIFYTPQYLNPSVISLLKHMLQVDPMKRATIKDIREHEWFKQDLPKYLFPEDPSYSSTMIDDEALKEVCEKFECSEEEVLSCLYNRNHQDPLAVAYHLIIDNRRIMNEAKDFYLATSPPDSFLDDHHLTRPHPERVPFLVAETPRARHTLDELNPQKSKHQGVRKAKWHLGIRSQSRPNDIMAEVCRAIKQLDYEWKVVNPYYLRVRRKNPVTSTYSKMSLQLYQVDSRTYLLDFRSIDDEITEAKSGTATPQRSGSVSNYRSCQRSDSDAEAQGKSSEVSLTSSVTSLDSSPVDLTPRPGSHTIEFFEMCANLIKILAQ
T1 sequence (P54619 whole entry partner): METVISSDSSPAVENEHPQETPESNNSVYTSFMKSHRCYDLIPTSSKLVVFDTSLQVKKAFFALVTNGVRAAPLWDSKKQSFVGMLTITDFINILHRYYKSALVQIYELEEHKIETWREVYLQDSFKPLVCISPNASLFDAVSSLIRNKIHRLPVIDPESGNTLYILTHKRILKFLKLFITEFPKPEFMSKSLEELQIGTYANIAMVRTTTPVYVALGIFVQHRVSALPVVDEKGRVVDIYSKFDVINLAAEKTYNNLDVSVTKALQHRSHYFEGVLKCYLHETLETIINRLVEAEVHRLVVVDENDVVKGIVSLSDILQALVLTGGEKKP

SMILES	activation at 3 µM ([1]; 3 μM) [%]	activation at 1 µM ([2]; 1 μM) [%]	activation at 1 µM ([1]; 1 μM) [%]	activation at 3 µM ([2]; 3 μM) [%]	also measured
COc1ccc(C2CC23C(=O)Nc2cc(Cl)c(-c4ccc(-c5ccccc5O)cc4)cc23)cc1CC(=O)O (stereo not drawn) [Example 25]			62	101	
O=C(O)Cc1ccc(C2CC23C(=O)Nc2cc(Cl)c(-c4ccc(-c5ccccc5O)cc4)cc23)cc1 (stereo not drawn) [Example 33]	71			83	
COc1ccc(C2CC23C(=O)N(C)c2cc(Cl)c(-c4ccc(-c5ccccc5O)cc4)cc23)cc1CC(=O)O (stereo not drawn) [Example 35]	27			23	
CC(C)(C(=O)O)c1ccc(C2CC23C(=O)Nc2cc(Cl)c(-c4ccc(-c5ccccc5O)cc4)cc23)cc1 (stereo not drawn) [Example 38]			58	106	
CC(C)c1ccc(C2CC23C(=O)N(C)c2cc(Cl)c(-c4ccc(-c5ccncc5O)cc4)cc23)cc1C(=O)O (stereo not drawn) [Example 40]	99			32	
CC(C)c1ccc(C2CC23C(=O)Nc2cc(Cl)c(-c4ccc(C5(CO)CC5)cc4)cc23)cc1C(=O)O (stereo not drawn) [Example 46]	83			42	
Cc1ccc(C2CC23C(=O)Nc2cc(Cl)c(-c4ccc(-c5ccncc5)cc4)cc23)cc1C(=O)O (stereo not drawn) [Example 60]			66	105	
O=C(O)c1cccc(C2CC23C(=O)Nc2cc(Cl)c(-c4ccc(-c5ccncc5)cc4)cc23)c1 (stereo not drawn) [Example 80]				54	activation at 10 µM [1]: 137%
Cc1ccc(C2CC23C(=O)Nc2cc(Cl)c(-c4ccc(-c5ccnc(N(C)C)c5)cc4)cc23)cc1C(=O)O (stereo not drawn) [Example 86]	95			49	
O=C(O)c1ccc(C2CC23C(=O)Nc2cc(Cl)c(-c4ccc(-c5ccncc5)cc4)cc23)cc1 (stereo not drawn) [Example 95]					activation at 10 µM [1]: 94%; activation at 10 µM [2]: 34%
Cc1ccc(C2CC23C(=O)Nc2cc(Cl)c(-c4ccc(-c5ccc(S(C)(=O)=O)cc5)cc4)cc23)cc1C(=O)O (stereo not drawn) [Example 97]		37	99		
Cc1ccc(C2CC23C(=O)N(C)c2cc(Cl)c(-c4ccc(-c5ccncc5)cc4)cc23)cc1C(=O)O (stereo not drawn) [Example 101]			103	46	
CN1C(=O)C2(CC2c2ccc(CC(=O)O)cc2)c2cc(-c3ccc(-c4ccncc4)cc3)c(Cl)cc21 (stereo not drawn) [Example 102]	33				activation at 10 µM [2]: 115%
CCN1C(=O)C2(CC2c2ccc(C)c(C(=O)O)c2)c2cc(-c3ccc(-c4ccncc4)cc3)c(Cl)cc21 (stereo not drawn) [Example 103]	74			2	
Cc1ccc(C2CC23C(=O)N(CC2CC2)c2cc(Cl)c(-c4ccc(-c5ccncc5)cc4)cc23)cc1C(=O)O (stereo not drawn) [Example 107]			94	65	
Cc1ccc(C2CC23C(=O)N(CC2CC2)c2cc(Cl)c(-c4ccc(-c5ccncc5)cc4)cc23)cc1C(=O)O (stereo not drawn) [Example 108]					Percentage activation of beta 1 at given concentration ([1]; 3 μM): 72% at 3 μM; Percentage activation of beta 2 at given concentration ([2]; 3 μM): 54% at 3 μM
Cc1ccc(C2CC23C(=O)Nc2cc(Cl)c(-c4ccc(-c5ccc(-n6cncn6)cc5)cc4)nc23)cc1C(=O)O (stereo not drawn) [Example 125]		46	81		
CCc1ccc(C2CC23C(=O)Nc2cc(Cl)c(-c4ccc(-c5ccc(-n6cncn6)cc5)cc4)nc23)cc1C(=O)O (stereo not drawn) [Example 133]		36	49		
Cc1ccc(C2CC23C(=O)Nc2cc(Cl)c(-c4ccc(-c5ccc(-n6ccnn6)cc5)cc4)cc23)cc1C(=O)O (stereo not drawn) [Example 134]					Percentage activation of beta 1 at given concentration ([1]; 1 μM): 123% at 1 μM; Percentage activation of beta 2 at given concentration ([2]; 1 μM): 47% at 1 μM
Cc1ccc(C2CC23C(=O)Nc2cc(Cl)c(-c4ccc(-c5ccc(-n6ccnn6)cc5)cc4)cc23)cc1C(=O)O (stereo not drawn) [Example 135]					Percentage activation of beta 1 at given concentration ([1]; 1 μM): 97% at 1 μM; Percentage activation of beta 2 at given concentration ([2]; 1 μM): 214% at 1 μM
Cc1ccc(C2CC23C(=O)Nc2cc(F)c(-c4ccc(-c5ccc(-n6cncn6)cc5)cc4)cc23)cc1C(=O)O (stereo not drawn) [Example 145]					Percentage activation of beta 1 at given concentration ([1]; 1 μM): 67% at 1 μM; Percentage activation of beta 2 at given concentration ([2]; 1 μM): 138% at 1 μM
Cc1ccc(C2CC23C(=O)Nc2cc(F)c(-c4ccc(-c5ccc(-n6cncn6)cc5)cc4)cc23)cc1C(=O)O (stereo not drawn) [Example 146]					Percentage activation of beta 1 at given concentration ([1]; 1 μM): 78% at 1 μM; Percentage activation of beta 2 at given concentration ([2]; 1 μM): 89% at 1 μM
Cc1ccc(C2CC23C(=O)Nc2c3cc(-c3ccc(-c4ccc(-n5cncn5)cc4)cc3)c(Cl)c2Cl)cc1C(=O)O (stereo not drawn) [Example 149]		62	26		
O=C1Nc2cc(F)c(-c3ccc(-c4ccccc4O)cc3)cc2C12CC2c1cccc(-c2nnn[nH]2)c1 (stereo not drawn) [Example 179]	23				
Cc1ccc(C2CC23C(=O)Nc2cc(Cl)c(-c4ccc(-c5ccccc5O)cc4)cc23)cc1C(=O)Nc1nnn[nH]1 (stereo not drawn) [Example 183]	19				
Cc1ccc(C2CC23C(=O)Nc2cc(Cl)c(-c4ccc(-c5ccc(-n6cncn6)cc5)cc4)cc23)cc1CO (stereo not drawn) [Example 185]					Percentage activation of beta 1 at given concentration ([1]; 3 μM): 34% at 3 μM
Cc1ccc(C2CC23C(=O)Nc2cc(Cl)c(-c4ccc(-c5ccc(-n6cncn6)cc5)cc4)cc23)cc1C(C)(C)O (stereo not drawn) [Example 186]	32				
O=C1Nc2cc(Cl)c(-c3ccc(-c4ccc(-n5cncn5)cc4)cc3)cc2C12CC2c1ccc(-c2nnn[nH]2)cc1 (stereo not drawn) [Example 191]	21				

Now from value to compound, other results behind:

activation at 3 µM ([1]; 3 μM) [%]	activation at 1 µM ([2]; 1 μM) [%]	activation at 1 µM ([1]; 1 μM) [%]	activation at 3 µM ([2]; 3 μM) [%]	SMILES	also measured
133	50			Cc1ccc(C2CC23C(=O)Nc2cc(F)c(-c4ccc(-c5ccccc5O)cc4)cc23)cc1C(=O)O (stereo not drawn) [Example 5]	
		79	57	Cc1ccc(C2CC23C(=O)Nc2cc(Cl)c(-c4ccc(-c5ccc(-n6cccn6)cc5)cc4)cc23)cc1C(=O)O (stereo not drawn) [Example 114]	
	114			Cc1ccc(C2CC23C(=O)Nc2cc(Cl)c(-c4ccc(-c5ccc(-n6cncn6)cc5)cc4)cc23)cc1C(=O)O (stereo not drawn) [Example 115]	Percentage activation of beta 1 at given concentration ([1]; 1 μM): 132% at 1 μM
	85	66		COc1ccc(C2CC23C(=O)Nc2cc(Cl)c(-c4ccc(-c5ccc(-n6cncn6)cc5)cc4)cc23)cc1CC(=O)O (stereo not drawn) [Example 123]	
		66	198	COc1ccc(C2CC23C(=O)Nc2cc(Cl)c(-c4ccc(-c5ccc(-n6cncn6)cc5)cc4)cc23)cc1C(=O)O (stereo not drawn) [Example 128]	
	102	52		CCc1ccc(C2CC23C(=O)Nc2cc(Cl)c(-c4ccc(-c5ccc(-n6cncn6)cc5)cc4)cc23)cc1C(=O)O (stereo not drawn) [Example 130]	
	153	59		CC(C)c1ccc(C2CC23C(=O)Nc2cc(Cl)c(-c4ccc(-c5ccc(-n6cncn6)cc5)cc4)cc23)cc1C(=O)O (stereo not drawn) [Example 132]	
	173	72		Cc1ccc(C2CC23C(=O)Nc2cc(Cl)c(-c4ccc(-c5ccc(-n6cccn6)cc5)cc4)nc23)cc1C(=O)O (stereo not drawn) [Example 138]	
85	283			COc1ccc(C2CC23C(=O)Nc2cc(Cl)c(-c4ccc(-c5ccc(-n6ccnn6)cc5)cc4)cc23)cc1C(=O)O (stereo not drawn) [Example 139]	
	66			Cc1ccc(C2CC23C(=O)Nc2cc(F)c(-c4ccc(-c5ccc(-n6cccn6)cc5)cc4)cc23)cc1C(=O)O (stereo not drawn) [Example 142]	Percentage activation of beta 1 at given concentration ([1]; 1 μM): 89% at 1 μM
	81	18		Cc1ccc(C2CC23C(=O)Nc2cc(Cl)c(-c4ccc(-c5ccc(-n6ccnc6C)cc5)cc4)cc23)cc1C(=O)O (stereo not drawn) [Example 150]	
	38	78		CC(C)(C(=O)O)c1ccc(C2CC23C(=O)Nc2cc(F)c(-c4ccc(-c5ccc(-n6cccn6)cc5)cc4)cc23)cc1 (stereo not drawn) [Example 158]	
	79			CC(C)(C(=O)O)c1ccc(C2CC23C(=O)Nc2cc(F)c(-c4ccc(-c5ccc(-n6cncn6)cc5)cc4)cc23)cc1 (stereo not drawn) [Example 162]	Percentage activation of beta 1 at given concentration ([1]; 1 μM): 61% at 1 μM
	84	55		COc1ccc(C2CC23C(=O)Nc2cc(F)c(-c4ccc(-c5ccc(-n6cncn6)cc5)cc4)cc23)cc1C(=O)O (stereo not drawn) [Example 168]	
	61	36		COc1ccc(C2CC23C(=O)Nc2cc(F)c(-c4ccc(-c5ccc(-n6ccnn6)cc5)cc4)cc23)cc1C(=O)O (stereo not drawn) [Example 169]	
		87		O=C(O)Cc1cccc(C2CC23C(=O)Nc2cc(F)c(-c4ccc(-c5ccc(-n6ccnn6)cc5)cc4)cc23)c1 (stereo not drawn) [Example 174]	
		51		COc1ccc(C2CC23C(=O)Nc2cc(F)c(-c4ccc(-c5ccc(-n6ccnn6)cc5)cc4)cc23)cc1CC(=O)O (stereo not drawn) [Example 177]	
36				Cc1ccc(C2CC23C(=O)Nc2cc(Cl)c(-c4ccc(-c5ccc(-n6cncn6)cc5)cc4)cc23)cc1CO (stereo not drawn) [Example 184]	
